Test results reported in patent US7994116B2, “Methods for reduction of adhesion formation using cytokine inhibitors” (Pharmasurgics In Sweden AB, priority 2002, dated 2011).

Experiments:
TNF = conditions: following single administration in the dosage used (4 mg/kg); cited from earlier work
[1] = tested on: rats with a standardized laminectomy; experiment: laminectomy model on the rat, infliximab treatment: wound healing and scar formation; assay type: in vivo; conditions: laminectomy of 4th lumbar vertebra, 4 mg/kg intraperitoneal
Protocol: Four rats were anaesthetized with a standardized combination of pentobarbital and diazepam. The skin on the back was shaved. Through a midline incision, a laminectomy of the 4th lumbar vertebra was performed. The spinal muscles and the skin was sutured. Two rats received an intraperitoneal injection of 4 mg/kg of infliximab. Infliximab is a monoclonal antibody towards TNF with an inhibiting action with a duration of 1-2 months following single administration in the dosage used. The other two rats received an intraperitoneal injection of saline. After 2 weeks, the rats were reanaesthesized and wound healing and scar formation were evaluated by a person being unaware of the experimental protocol. Wound healing was considered normal in both groups. […] In the non-treated group, there was a somewhat more dense lump of connective tissue that was adherent to the spinal dura mater.

## infliximab
TNF
  duration of inhibiting action towards TNF: 1-2 months
[1]; after 2 weeks, saline group: adherent to the dura mater
  adhesion of connective tissue to the spinal dura mater: did not adhere to the spinal dura mater and was easy to remove
[1]; after 2 weeks, saline group: somewhat more dense lump of connective tissue
  scar formation: tissue filling the previous location of the lamina: soft connective tissue
[1]; evaluated after 2 weeks, blinded
  wound healing: normal
